In patent US20060134144A1, “Mucoadhesive composition and formulation for solubilization of insoluble drugs and preparation method thereof” (priority 2002, published 2006):

Test: Dispersion behaviour on mixing with water
Type: physicochemical
Conditions: mixed with water
Description: The size of the emulsion particles were measured by using Malvern Zetasizer (Malvern Instruments Limited, England) after preparing the emulsion by adding 3 mL of distilled water to 2 μL of thus obtained liquid formulation. An average particle size and polydispersity were obtained by measuring values for a given formulation three times (Orr, Encyclopedia of emulsion technology, 1, 369-404, 1985). The polydispersity was obtained as the variance indicated by the logarithmic scale in the logarithmic normal distribution function. The above method in measuring the particle size and the polydispersity was used throughout the following examples.
The above composition exists as semi-solid or solid at room temperature and in a refrigerator, respectively, but as liquid at or above 40° C. Dispersion with the average particle size of 530 nm was obtained when the above composition was vortexed for 10 s in water. The absorbance at 400 nm was 2.36.
Monoolein (99.5% purity) from Nu-Chek Prep (Elysian, Minn., USA) or Myverol 18-99K (monoolein content 86.6 weight %) from Danisco A/S (Copenhagen, Denmark) were mixed with water. […] Since the cubic phase had very high viscosity and floated in water, the particle size or absorbance could not be determined.

## CCCCCCCC/C=C\CCCCCCCC(=O)OCC(O)CO (stereo not shown) [Monoolein (99.5% purity), Monoolein]
  dispersion behaviour in water: Cubic phases were formed instead of dispersion
